For three molecules, activity and inhibition results are on record in PMC6812009, “Covalent Aurora A regulation by the metabolic integrator coenzyme A” (Redox Biology, 2019).

Structures are written as SMILES.

Assay in all cases: Kinase profiling screen (radioactive filter-binding assay)
Common to all, as to format: biochemical

One assay addresses PIM3 (Homo sapiens, UniProt Q86V86). The settings on record: 100 μM compound, 20 μM ATP; read-out: Kinase activity, % of activity in the absence of inhibitor. In a few lines: (§1)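 Residual kinase activity is read in duplicate wells containing 100 μM final test compound (CoA, dpCoA or ADP). Recombinant kinases use model substrates at ATP levels optimal for each enzyme, across a 117-kinase screen.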

The next assay deals with SRPK1 (Homo sapiens, UniProt Q96SB4). The settings on record: 100 μM compound, 50 μM ATP; read-out: Kinase activity, % of activity in the absence of inhibitor. In a few lines:
as §1

Another assay deals with MAPKAP-K3 (Homo sapiens, UniProt Q16644). The settings on record: 100 μM compound, 20 μM ATP; read-out: Kinase activity, % of activity in the absence of inhibitor. In a few lines: as §1
Chain of MAPKAP-K3 (Q16644 whole entry): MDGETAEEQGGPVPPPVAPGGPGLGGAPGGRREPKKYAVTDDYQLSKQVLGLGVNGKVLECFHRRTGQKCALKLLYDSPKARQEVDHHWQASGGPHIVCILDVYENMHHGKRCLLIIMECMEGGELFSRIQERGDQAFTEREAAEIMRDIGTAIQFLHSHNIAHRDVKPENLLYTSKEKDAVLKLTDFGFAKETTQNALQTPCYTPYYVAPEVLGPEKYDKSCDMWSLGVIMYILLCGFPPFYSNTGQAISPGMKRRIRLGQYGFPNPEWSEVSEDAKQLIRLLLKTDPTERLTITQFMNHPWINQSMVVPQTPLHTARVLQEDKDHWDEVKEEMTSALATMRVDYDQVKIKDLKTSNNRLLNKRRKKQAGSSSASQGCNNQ
A further assay deals with PKCβ (Homo sapiens, UniProt P05771). The settings on record: 100 μM compound, 50 μM ATP; read-out: Kinase activity, % of activity in the absence of inhibitor. The procedure, abridged:
as §1

A further assay deals with PKCγ (Homo sapiens, UniProt P05129). Particulars: 100 μM compound, 20 μM ATP; read-out: Kinase activity, % of activity in the absence of inhibitor. The procedure, abridged: as §1
The next assay deals with T1, IKKε (Homo sapiens, UniProt Q14164).
T1 sequence (Q14164 1-716): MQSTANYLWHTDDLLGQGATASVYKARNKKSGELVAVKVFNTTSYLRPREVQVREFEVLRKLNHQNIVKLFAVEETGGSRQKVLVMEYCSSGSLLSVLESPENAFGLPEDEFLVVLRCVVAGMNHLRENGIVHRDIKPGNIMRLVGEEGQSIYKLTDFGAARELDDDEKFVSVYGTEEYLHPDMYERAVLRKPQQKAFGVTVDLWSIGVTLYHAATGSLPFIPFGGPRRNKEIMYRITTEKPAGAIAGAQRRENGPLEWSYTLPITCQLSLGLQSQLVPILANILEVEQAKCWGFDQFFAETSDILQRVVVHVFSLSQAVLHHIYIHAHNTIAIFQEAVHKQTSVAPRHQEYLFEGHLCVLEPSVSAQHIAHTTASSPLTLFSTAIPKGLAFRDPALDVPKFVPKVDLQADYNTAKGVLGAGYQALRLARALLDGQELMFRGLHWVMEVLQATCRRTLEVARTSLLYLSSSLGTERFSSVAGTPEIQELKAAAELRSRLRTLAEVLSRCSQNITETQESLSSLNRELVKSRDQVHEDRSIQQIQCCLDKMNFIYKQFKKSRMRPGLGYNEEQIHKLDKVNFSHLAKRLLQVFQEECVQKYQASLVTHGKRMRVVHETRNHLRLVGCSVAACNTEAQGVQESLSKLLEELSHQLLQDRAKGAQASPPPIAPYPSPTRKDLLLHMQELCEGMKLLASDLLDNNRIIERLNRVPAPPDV
The settings on record: 100 μM compound, 50 μM ATP; read-out: Kinase activity, % of activity in the absence of inhibitor. In a few lines: as §1

The target of a further assay is JNK2 (Homo sapiens, UniProt P45984). Particulars: 100 μM compound, 20 μM ATP; read-out: Kinase activity, % of activity in the absence of inhibitor. The procedure, abridged: as §1
Chain of JNK2 (P45984 whole entry): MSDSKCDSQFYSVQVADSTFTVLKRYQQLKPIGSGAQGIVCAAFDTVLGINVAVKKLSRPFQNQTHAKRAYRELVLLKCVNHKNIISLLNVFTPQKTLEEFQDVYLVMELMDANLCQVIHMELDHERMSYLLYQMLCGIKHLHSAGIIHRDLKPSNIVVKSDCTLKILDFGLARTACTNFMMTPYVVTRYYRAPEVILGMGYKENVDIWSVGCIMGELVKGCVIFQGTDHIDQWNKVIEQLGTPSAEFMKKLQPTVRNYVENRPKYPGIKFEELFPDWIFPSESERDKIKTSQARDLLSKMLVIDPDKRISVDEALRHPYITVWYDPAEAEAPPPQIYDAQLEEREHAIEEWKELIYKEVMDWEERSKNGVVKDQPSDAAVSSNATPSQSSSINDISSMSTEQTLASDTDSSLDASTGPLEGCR
Another assay deals with T2, Aurora A (Homo sapiens, UniProt O14965).
T2 sequence (O14965 1-403): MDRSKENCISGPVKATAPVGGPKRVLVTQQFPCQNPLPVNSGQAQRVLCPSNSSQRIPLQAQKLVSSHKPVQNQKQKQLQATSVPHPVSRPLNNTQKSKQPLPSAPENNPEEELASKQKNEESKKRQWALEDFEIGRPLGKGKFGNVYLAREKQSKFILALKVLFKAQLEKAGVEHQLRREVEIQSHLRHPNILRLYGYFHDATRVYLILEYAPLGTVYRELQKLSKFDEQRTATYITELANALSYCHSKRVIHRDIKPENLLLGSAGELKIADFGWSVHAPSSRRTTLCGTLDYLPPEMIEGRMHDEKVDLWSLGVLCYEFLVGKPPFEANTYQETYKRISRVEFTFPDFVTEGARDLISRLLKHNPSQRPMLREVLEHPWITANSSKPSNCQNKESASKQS
The settings on record: for activity at 100 µM: 100 μM compound, 5 μM ATP, read-out: Kinase activity, % of activity in the absence of inhibitor. The procedure, abridged:
as §1

The target of a further assay is MNK2 (Homo sapiens, UniProt Q9HBH9). Particulars: 100 μM compound, 50 μM ATP; read-out: Kinase activity, % of activity in the absence of inhibitor. The procedure, abridged: as §1
Chain of MNK2 (Q9HBH9 whole entry): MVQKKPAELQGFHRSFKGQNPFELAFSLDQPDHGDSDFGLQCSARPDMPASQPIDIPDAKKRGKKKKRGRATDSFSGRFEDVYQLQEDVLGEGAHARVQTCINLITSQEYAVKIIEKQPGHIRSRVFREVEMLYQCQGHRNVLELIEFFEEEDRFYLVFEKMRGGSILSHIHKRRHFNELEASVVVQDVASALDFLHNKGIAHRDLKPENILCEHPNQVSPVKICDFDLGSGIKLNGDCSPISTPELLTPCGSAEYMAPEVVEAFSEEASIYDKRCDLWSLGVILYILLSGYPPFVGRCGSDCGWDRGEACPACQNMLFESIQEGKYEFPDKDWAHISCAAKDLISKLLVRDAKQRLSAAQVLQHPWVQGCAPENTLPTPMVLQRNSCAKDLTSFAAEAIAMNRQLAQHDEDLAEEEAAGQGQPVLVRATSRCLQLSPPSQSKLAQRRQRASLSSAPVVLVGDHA
The next assay has as its target T3, PDK1 (Homo sapiens, UniProt O15530).
T3 sequence (O15530 1-556): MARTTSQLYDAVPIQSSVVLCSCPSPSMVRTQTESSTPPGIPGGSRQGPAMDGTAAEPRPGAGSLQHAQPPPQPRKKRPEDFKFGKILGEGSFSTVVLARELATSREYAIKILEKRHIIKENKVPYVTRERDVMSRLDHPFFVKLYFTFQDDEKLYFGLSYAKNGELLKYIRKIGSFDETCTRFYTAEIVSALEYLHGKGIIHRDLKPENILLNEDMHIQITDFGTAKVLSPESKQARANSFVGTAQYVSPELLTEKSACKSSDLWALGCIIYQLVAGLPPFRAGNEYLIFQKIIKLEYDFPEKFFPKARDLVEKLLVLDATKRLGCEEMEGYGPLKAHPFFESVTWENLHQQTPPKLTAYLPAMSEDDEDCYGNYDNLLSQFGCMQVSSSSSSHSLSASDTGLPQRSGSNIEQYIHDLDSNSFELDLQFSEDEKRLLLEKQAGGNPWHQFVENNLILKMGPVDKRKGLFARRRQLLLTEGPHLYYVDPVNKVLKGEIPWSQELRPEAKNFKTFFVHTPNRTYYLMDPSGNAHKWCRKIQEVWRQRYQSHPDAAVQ
Particulars: 100 μM compound, 20 μM ATP; read-out: Kinase activity, % of activity in the absence of inhibitor. In a few lines: as §1

Chain of SRPK1 (Q96SB4 whole entry): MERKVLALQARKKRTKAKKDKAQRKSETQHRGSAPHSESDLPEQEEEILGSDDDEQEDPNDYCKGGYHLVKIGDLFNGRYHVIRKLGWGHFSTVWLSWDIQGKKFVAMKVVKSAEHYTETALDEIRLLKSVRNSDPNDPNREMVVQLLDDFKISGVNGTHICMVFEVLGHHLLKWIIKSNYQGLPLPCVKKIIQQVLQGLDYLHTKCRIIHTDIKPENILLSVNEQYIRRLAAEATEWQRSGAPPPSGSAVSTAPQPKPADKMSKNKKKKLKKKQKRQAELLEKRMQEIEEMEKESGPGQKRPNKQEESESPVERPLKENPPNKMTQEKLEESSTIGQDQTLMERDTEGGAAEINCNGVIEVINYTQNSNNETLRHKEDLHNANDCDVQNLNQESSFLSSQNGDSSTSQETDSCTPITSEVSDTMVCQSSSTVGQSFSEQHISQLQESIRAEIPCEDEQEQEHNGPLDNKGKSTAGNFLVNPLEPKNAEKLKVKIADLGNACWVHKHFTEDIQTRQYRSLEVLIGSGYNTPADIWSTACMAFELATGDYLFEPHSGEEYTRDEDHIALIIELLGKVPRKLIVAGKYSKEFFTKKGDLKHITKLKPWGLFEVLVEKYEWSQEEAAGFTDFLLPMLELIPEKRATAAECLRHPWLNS
Chain of PKCβ (P05771 whole entry): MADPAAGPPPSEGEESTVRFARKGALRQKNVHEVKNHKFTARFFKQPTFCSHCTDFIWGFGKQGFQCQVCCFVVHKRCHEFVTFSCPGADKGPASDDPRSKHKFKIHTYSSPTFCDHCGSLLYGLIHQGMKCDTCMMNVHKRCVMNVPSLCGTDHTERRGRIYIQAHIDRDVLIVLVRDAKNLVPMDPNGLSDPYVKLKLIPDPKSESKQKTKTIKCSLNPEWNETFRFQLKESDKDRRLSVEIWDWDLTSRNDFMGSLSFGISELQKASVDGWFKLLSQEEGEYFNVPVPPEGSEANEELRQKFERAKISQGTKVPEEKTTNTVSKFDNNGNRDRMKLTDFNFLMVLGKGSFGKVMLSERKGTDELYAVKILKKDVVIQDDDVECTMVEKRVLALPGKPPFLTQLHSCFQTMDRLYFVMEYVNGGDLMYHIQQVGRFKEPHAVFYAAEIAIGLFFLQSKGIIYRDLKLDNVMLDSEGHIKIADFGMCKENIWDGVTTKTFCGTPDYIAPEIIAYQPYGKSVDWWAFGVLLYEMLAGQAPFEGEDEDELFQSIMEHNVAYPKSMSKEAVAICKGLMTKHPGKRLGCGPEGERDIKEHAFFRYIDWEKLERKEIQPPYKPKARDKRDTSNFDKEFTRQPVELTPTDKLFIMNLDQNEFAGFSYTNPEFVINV

Take `CC(C)(COP(=O)(O)OP(=O)(O)OCC1OC(n2cnc3c(N)ncnc32)C(O)C1O)C(O)C(=O)NCCC(=O)NCCS` (stereo not shown) [dpCoA, dephospho-CoA]: the activity at 100 µM on PIM3 came out at 96.7%; at SRPK1, 89.1%; at MAPKAP-K3, 63%; at PKCβ it was 105%; on PKCγ, 66.4%; on IKKε, 91.4%. Further, the activity at 100 µM on JNK2 was 76.1%; at Aurora A it was 29.9%; on MNK2, 87.1%; at PDK1, 91.2%.

Regarding `CC(C)(COP(=O)(O)OP(=O)(O)OC[C@H]1O[C@@H](n2cnc3c(N)ncnc32)[C@H](O)[C@@H]1OP(=O)(O)O)[C@@H](O)C(=O)NCCC(=O)NCCS` [CoA, Coenzyme A], the activity at 100 µM at PIM3 was 122%; on SRPK1, 116%; at MAPKAP-K3, 98.4%; on PKCβ, 118%; on PKCγ, 70.2%; at IKKε it was 125%. For the same molecule, the activity at 100 µM on JNK2 was determined as 93.9%; on Aurora A, 13.4%; on MNK2 it was 138%; on PDK1, 113%. Also, at Aurora A (at 100 μM, n = 3), the inhibition (commonly the relative decrease from the control value, in per cent) at 100 µM came to 87%.

As to `Nc1ncnc2c1ncn2C1OC(COP(=O)(O)OP(=O)(O)O)C(O)C1O` (stereo not shown) [ADP], the activity at 100 µM on PIM3 amounted to 36.1%; at SRPK1, 60.9%; at MAPKAP-K3, 25.7%; at PKCβ, 79.2%; at PKCγ, 71.9%; at IKKε it was 73.8%. The activity at 100 µM at JNK2 came out at 57.3%; on Aurora A, 38%; on MNK2, 41.2%; on PDK1, 23.3%.
